Experimental data published in ChEMBL document CHEMBL1135452, “Side-chain homologation of nodulisporic acid: synthesis of potent new dienyl derivatives” (Bioorg Med Chem Lett, 2002).

What follows are compounds tested on Pulicinae (assay: In vitro systemic flea efficacy using membrane feeding assay.).
Format: functional
`C=C(C)[C@H]1C(=O)c2c3c(cc4c5c(n1c24)[C@@]1(C)C(CC[C@H]2[C@](C)(/C=C/C=C(\OC)C(=O)NCC)[C@@H](O)CC[C@@]21C)C5)C1=CC(C)(C)OC(C)(C)C1[C@@H]3O` (some centres not stated) gave an Activity of 10 p.p.m. In the case of `C=C(C)[C@H]1C(=O)c2c3c(cc4c5c(n1c24)[C@@]1(C)C(CC[C@H]2[C@](C)(/C=C/C=C(\CCC)C(=O)O)[C@@H](O)CC[C@@]21C)C5)C1=CC(C)(C)OC(C)(C)C1[C@@H]3O` (some centres not stated), the Activity is reported as over 10 p.p.m. With `C=CC/C(=C\C=C\[C@]1(C)[C@@H](O)CC[C@@]2(C)[C@H]1CCC1Cc3c(n4c5c(c6c(cc35)C3=CC(C)(C)OC(C)(C)C3[C@@H]6O)C(=O)[C@@H]4C(=C)C)[C@@]12C)C(N)=O` (some centres not stated) the Activity was 1 p.p.m. `C=C(C)[C@H]1C(=O)c2c3c(cc4c5c(n1c24)[C@@]1(C)C(CC[C@H]2[C@](C)(/C=C/C=C(\F)C(=O)NC(C)(C)C)[C@@H](O)CC[C@@]21C)C5)C1=CC(C)(C)OC(C)(C)C1[C@@H]3O` (some centres not stated) gave an Activity of 1 p.p.m. Work on `C=C(C)[C@H]1C(=O)c2c3c(cc4c5c(n1c24)[C@@]1(C)C(CC[C@H]2[C@](C)(/C=C/C=C(\C)C(=O)O)[C@@H](O)CC[C@@]21C)C5)C1=CC(C)(C)OC(C)(C)C1[C@@H]3O` (some centres not stated) yielded an Activity of 1 p.p.m. `C=C(C)[C@H]1C(=O)c2c3c(cc4c5c(n1c24)[C@@]1(C)C(CC[C@H]2[C@](C)(/C=C/C(C)=C/C(=O)NC(C)(C)C)[C@@H](O)CC[C@@]21C)C5)C1=CC(C)(C)OC(C)(C)C1[C@@H]3O` (some centres not stated) gave an Activity of 10 p.p.m. In the case of `C=CC/C(=C\C=C\[C@]1(C)[C@@H](O)CC[C@@]2(C)[C@H]1CCC1Cc3c(n4c5c(c6c(cc35)C3=CC(C)(C)OC(C)(C)C3[C@@H]6O)C(=O)[C@@H]4C(=C)C)[C@@]12C)C(=O)NC(C)(C)C` (some centres not stated), the Activity is reported as 10 p.p.m.
